Test results: ChEMBL document CHEMBL1255297, “Genomewide screening for genes associated with gliotoxin resistance and sensitivity in Saccharomyces cerevisiae” (2008)
≈ marks a conversion by molar mass, not a printed value.

Legend:
Assay type in all cases: functional
[1] = test system: Saccharomyces cerevisiae; assay: Antimicrobial activity against Saccharomyces cerevisiae containing disruption in RAD18 gene by broth microdilution method
[2] = test system: Saccharomyces cerevisiae; assay: Antimicrobial activity against Saccharomyces cerevisiae containing disruption in APL2 gene by broth microdilution method
[3] = test system: Saccharomyces cerevisiae; assay: Antimicrobial activity against Saccharomyces cerevisiae containing disruption in […] gene by broth microdilution method
[4] = test system: Saccharomyces cerevisiae; assay: Antimicrobial activity against wild type Saccharomyces cerevisiae BY4741 by broth microdilution method
[5] = test system: Saccharomyces cerevisiae; assay: Antimicrobial activity against Saccharomyces cerevisiae containing disruption in YGL235W gene by broth microdilution method
[6] = test system: Saccharomyces cerevisiae; assay: Antimicrobial activity against Saccharomyces cerevisiae containing disruption in IFA38 gene by broth microdilution method
[7] = test system: Saccharomyces cerevisiae; assay: Antimicrobial activity against Saccharomyces cerevisiae containing disruption in RTG2 gene by broth microdilution method
[8] = test system: Saccharomyces cerevisiae; assay: Antimicrobial activity against Saccharomyces cerevisiae containing disruption in YKL037W gene by broth microdilution method
[9] = test system: Saccharomyces cerevisiae; assay: Antimicrobial activity against Saccharomyces cerevisiae containing disruption in SNF1 gene by broth microdilution method
[10] = test system: Saccharomyces cerevisiae; assay: Antimicrobial activity against Saccharomyces cerevisiae containing disruption in YGL072C gene by broth microdilution method
[11] = test system: Saccharomyces cerevisiae; assay: Antimicrobial activity against Saccharomyces cerevisiae containing disruption in MEF2 gene by broth microdilution method
[12] = test system: Saccharomyces cerevisiae; assay: Antimicrobial activity against Saccharomyces cerevisiae containing disruption in CYS3 gene by broth microdilution method
[13] = test system: Saccharomyces cerevisiae; assay: Antimicrobial activity against Saccharomyces cerevisiae containing disruption in YOR345C gene by broth microdilution method
[14] = test system: Saccharomyces cerevisiae; assay: Antimicrobial activity against Saccharomyces cerevisiae containing disruption in YLR456W gene by broth microdilution method

Structure (SMILES) | MIC [1] | MIC [2] | MIC [3] | MIC [4] | MIC [5] | MIC [6] | MIC [7] | MIC [8] | MIC [9] | MIC [10] | MIC [11] | MIC [12] | MIC [13] | MIC [14]
C[C@@H]1[C@H](O)[C@@H](C)/C=C/C=C/C=C/C=C/C=C/C=C/C=C/[C@H](O[C@@H]2O[C@H](C)[C@@H](O)[C@H](N)[C@@H]2O)C[C@@H]2O[C@](O)(C[C@@H](O)C[C@@H](O)[C@H](O)CC[C@@H](O)C[C@@H](O)CC(=O)O[C@H]1C)C[C@H](O)[C@H]2C(=O)O [AMPHOTERICIN B] | 0.5 mg/L (≈ 0.541 µM) | 0.5 mg/L (≈ 0.541 µM) | 0.5 mg/L (≈ 0.541 µM) | 0.125 mg/L (≈ 0.135 µM) | 0.5 mg/L (≈ 0.541 µM) | 0.5 mg/L (≈ 0.541 µM) | 0.5 mg/L (≈ 0.541 µM) | 0.25 mg/L (≈ 0.271 µM) | 0.5 mg/L (≈ 0.541 µM) | 0.5 mg/L (≈ 0.541 µM) | 0.25 mg/L (≈ 0.271 µM) | 0.25 mg/L (≈ 0.271 µM) | 0.5 mg/L (≈ 0.541 µM) | 0.5 mg/L (≈ 0.541 µM)
CC[C@H](C)C[C@H](C)CCCCCCCCC(=O)N[C@H]1C[C@@H](O)[C@@H](NCCN)NC(=O)[C@@H]2[C@@H](O)CCN2C(=O)[C@H]([C@H](O)CCN)NC(=O)[C@H]([C@H](O)[C@@H](O)c2ccc(O)cc2)NC(=O)[C@@H]2C[C@@H](O)CN2C(=O)[C@H]([C@@H](C)O)NC1=O [CASPOFUNGIN] | 0.007 mg/L (≈ 0.0064 µM) | 0.007 mg/L (≈ 0.0064 µM) | 0.007 mg/L (≈ 0.0064 µM) | 0.007 mg/L (≈ 0.0064 µM) | 0.007 mg/L (≈ 0.0064 µM) | 0.007 mg/L (≈ 0.0064 µM) | 0.007 mg/L (≈ 0.0064 µM) | 0.028 mg/L (≈ 0.0256 µM) | 0.007 mg/L (≈ 0.0064 µM) | 0.007 mg/L (≈ 0.0064 µM) | 0.028 mg/L (≈ 0.0256 µM) | 0.028 mg/L (≈ 0.0256 µM) | 0.007 mg/L (≈ 0.0064 µM) | 0.007 mg/L (≈ 0.0064 µM)
C[C@@H]1C[C@@H]([C@H](O)CC2CC(=O)NC(=O)C2)C(=O)[C@@H](C)C1 [CYCLOHEXIMIDE] | 0.025 mg/L (≈ 0.0889 µM) | 0.025 mg/L (≈ 0.0889 µM) | 0.025 mg/L (≈ 0.0889 µM) | 0.025 mg/L (≈ 0.0889 µM) | 0.025 mg/L (≈ 0.0889 µM) | 0.025 mg/L (≈ 0.0889 µM) | 0.025 mg/L (≈ 0.0889 µM) | 0.025 mg/L (≈ 0.0889 µM) | 0.025 mg/L (≈ 0.0889 µM) | 0.025 mg/L (≈ 0.0889 µM) | 0.025 mg/L (≈ 0.0889 µM) | 0.025 mg/L (≈ 0.0889 µM) | 0.025 mg/L (≈ 0.0889 µM) | 0.025 mg/L (≈ 0.0889 µM)
OC(Cn1cncn1)(Cn1cncn1)c1ccc(F)cc1F [FLUCONAZOLE] | 16 mg/L (≈ 52.2 µM) | 16 mg/L (≈ 52.2 µM) | 16 mg/L (≈ 52.2 µM) | 32 mg/L (≈ 104 µM) | 16 mg/L (≈ 52.2 µM) | 16 mg/L (≈ 52.2 µM) | 16 mg/L (≈ 52.2 µM) | 32 mg/L (≈ 104 µM) | 16 mg/L (≈ 52.2 µM) | 16 mg/L (≈ 52.2 µM) | 32 mg/L (≈ 104 µM) | 32 mg/L (≈ 104 µM) | 16 mg/L (≈ 52.2 µM) | 16 mg/L (≈ 52.2 µM)
CN1C(=O)[C@]23CC4=CC=C[C@H](O)[C@H]4N2C(=O)[C@@]1(CO)SS3 [GLIOTOXIN] | 8 mg/L (≈ 24.5 µM) | 8 mg/L (≈ 24.5 µM) | 2 mg/L (≈ 6.13 µM) | 0.5 mg/L (≈ 1.53 µM) | 8 mg/L (≈ 24.5 µM) | 2 mg/L (≈ 6.13 µM) | 8 mg/L (≈ 24.5 µM) | 0.125 mg/L (≈ 0.383 µM) | 8 mg/L (≈ 24.5 µM) | 16 mg/L (≈ 49 µM) | 0.06 mg/L (≈ 0.184 µM) | 0.06 mg/L (≈ 0.184 µM) | 16 mg/L (≈ 49 µM) | 8 mg/L (≈ 24.5 µM)
